Key:
barnyard grass [1] = assay: Test Example 3: herbicidal effect by foliage application, Wagner pot (Table 18, symbol H); format: in vivo, barnyard grass (Echinochloa crus-galli)
How it was run: (§1)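 Plants were sown in alluvial soil held under 0.1–0.5 cm standing water and grown 14 days in a greenhouse at 25–30 °C. An emulsifiable formulation, water-diluted to the set dose, was then sprayed onto the foliage, and effects were scored three weeks later using previously defined criteria.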

Japanese bulrush [2] = assay: Test Example 1: herbicidal activity, application before weed generation under submerged conditions (Table 16, symbol B); format: in vivo, Japanese bulrush (Schoenoplectus juncoides); conditions: 320 g/ha applied herbicide
How it was run: (§2)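 Submerged Wagner pots (alluvial soil, 4 cm water) sown with weed seeds and planted with 2.5-leaf rice seedlings; emulsifiable concentrate diluted in water applied to water surface on sowing day. Held in greenhouse at 25-30 °C; injury scored 0-5 by herbicidal rate after three weeks.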

oval-leafed pondweed [3] = assay: Test Example 2: herbicidal activity, application during weed generation under submerged conditions (Table 17, symbol C); format: in vivo, oval-leafed pondweed (Monochoria vaginalis); conditions: AAH 320 g/ha; application during weed generation, submerged conditions
How it was run: (§3)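 Steps: fill Wagner pots with alluvial soil; add water to give 4 cm depth; sow the species mixed; grow under glass at 25–30° C.; at 1–2 leaves apply water-diluted emulsion formulation to the water surface at a fixed herbicide amount; score after 3 weeks.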

late watergrass [4] = assay: Test Example 2: herbicidal activity, application during weed generation under submerged conditions (Table 17, symbol A); format: in vivo, late watergrass (Echinochloa oryzicola); conditions: AAH 320 g/ha; application during weed generation, submerged conditions
How it was run: as §3

Chinese sprangletop = assay: Test Example 3: herbicidal effect by foliage application, Wagner pot (Table 18, symbol D); format: in vivo, chinese sprangletop (Leptochloa chinensis)
How it was run: as §1

oval-leafed pondweed [5] = assay: Test Example 1: herbicidal activity, application before weed generation under submerged conditions (Table 16, symbol C); format: in vivo, oval-leafed pondweed (Monochoria vaginalis); conditions: 320 g/ha applied herbicide
How it was run: as §2

rice flat sedge = assay: Test Example 3: herbicidal effect by foliage application, Wagner pot (Table 18, symbol E); format: in vivo, rice flat sedge (Cyperus iria)
How it was run: as §1

late watergrass [6] = assay: Test Example 1: herbicidal activity, application before weed generation under submerged conditions (Table 16, symbol A); format: in vivo, late watergrass (Echinochloa oryzicola); conditions: 320 g/ha applied herbicide
How it was run: as §2

Japanese bulrush [7] = assay: Test Example 2: herbicidal activity, application during weed generation under submerged conditions (Table 17, symbol B); format: in vivo, Japanese bulrush (Schoenoplectus juncoides); conditions: AAH 320 g/ha; application during weed generation, submerged conditions
How it was run: as §3

velvetleaf [8] = assay: Test Example 4: herbicidal effect by soil treatment (Table 19, symbol M); format: in vivo, velvetleaf (Abutilon theophrasti); conditions: amount of applied herbicide 320 g/ha
How it was run: (§4)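 Emulsion of test compound, water-diluted to predetermined amount, sprayed on soil after sowing (seed depth ~1.5 cm, sterilized diluvial soil). Greenhouse, 25–30° C. Effect graded at three weeks post-spray.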

chickweed [9] = assay: Test Example 5: herbicidal effect by foliage application, plastic box (Table 20, symbol P); format: in vivo, common chickweed (Stellaria media); conditions: foliage application, 320 g/ha, evaluated three weeks after application
How it was run: (§5)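 Post-emergence foliar test in sterilized diluvial soil. Compound applied as water-diluted emulsion at a predetermined rate to 14-day-old plants; evaluation at three weeks.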

redroot pigweed [10] = assay: Test Example 5: herbicidal effect by foliage application, plastic box (Table 20, symbol N); format: in vivo, redroot pigweed (Amaranthus retroflexus); conditions: foliage application, 320 g/ha, evaluated three weeks after application
How it was run: as §5

wild oat [11] = assay: Test Example 4: herbicidal effect by soil treatment (Table 19, symbol I); format: in vivo, wild oat (Avena fatua); conditions: amount of applied herbicide 320 g/ha
How it was run: as §4

Italian ryegrass [12] = assay: Test Example 5: herbicidal effect by foliage application, plastic box (Table 20, symbol K); format: in vivo, Italian ryegrass (Lolium multiflorum); conditions: foliage application, 320 g/ha, evaluated three weeks after application
How it was run: as §5

persian speedwell [13] = assay: Test Example 5: herbicidal effect by foliage application, plastic box (Table 20, symbol R); format: in vivo, Persian speedwell (Veronica persica); conditions: foliage application, 320 g/ha, evaluated three weeks after application
How it was run: as §5

wild oat [14] = assay: Test Example 5: herbicidal effect by foliage application, plastic box (Table 20, symbol I); format: in vivo, wild oat (Avena fatua); conditions: foliage application, 320 g/ha, evaluated three weeks after application
How it was run: as §5

southern crabgrass [15] = assay: Test Example 5: herbicidal effect by foliage application, plastic box (Table 20, symbol F); format: in vivo, southern crabgrass (Digitaria ciliaris); conditions: foliage application, 320 g/ha, evaluated three weeks after application
How it was run: as §5

green foxtail [16] = assay: Test Example 4: herbicidal effect by soil treatment (Table 19, symbol G); format: in vivo, green foxtail (Setaria viridis); conditions: amount of applied herbicide 320 g/ha
How it was run: as §4

blackgrass [17] = assay: Test Example 5: herbicidal effect by foliage application, plastic box (Table 20, symbol J); format: in vivo, blackgrass (Alopecurus myosuroides); conditions: foliage application, 320 g/ha, evaluated three weeks after application
How it was run: as §5

velvetleaf [18] = assay: Test Example 5: herbicidal effect by foliage application, plastic box (Table 20, symbol M); format: in vivo, velvetleaf (Abutilon theophrasti); conditions: foliage application, 320 g/ha, evaluated three weeks after application
How it was run: as §5

lambsquarters [19] = assay: Test Example 4: herbicidal effect by soil treatment (Table 19, symbol O); format: in vivo, lambsquarters (Chenopodium album); conditions: amount of applied herbicide 320 g/ha
How it was run: as §4

barnyard grass [20] = assay: Test Example 5: herbicidal effect by foliage application, plastic box (Table 20, symbol H); format: in vivo, barnyard grass (Echinochloa crus-galli); conditions: foliage application, 320 g/ha, evaluated three weeks after application
How it was run: as §5

blackgrass [21] = assay: Test Example 4: herbicidal effect by soil treatment (Table 19, symbol J); format: in vivo, blackgrass (Alopecurus myosuroides); conditions: amount of applied herbicide 320 g/ha
How it was run: as §4

windgrass [22] = assay: Test Example 5: herbicidal effect by foliage application, plastic box (Table 20, symbol L); format: in vivo, windgrass (Apera spica-venti); conditions: foliage application, 320 g/ha, evaluated three weeks after application
How it was run: as §5

lambsquarters [23] = assay: Test Example 5: herbicidal effect by foliage application, plastic box (Table 20, symbol O); format: in vivo, lambsquarters (Chenopodium album); conditions: foliage application, 320 g/ha, evaluated three weeks after application
How it was run: as §5

persian speedwell [24] = assay: Test Example 4: herbicidal effect by soil treatment (Table 19, symbol R); format: in vivo, Persian speedwell (Veronica persica); conditions: amount of applied herbicide 320 g/ha
How it was run: as §4

chickweed [25] = assay: Test Example 4: herbicidal effect by soil treatment (Table 19, symbol P); format: in vivo, common chickweed (Stellaria media); conditions: amount of applied herbicide 320 g/ha
How it was run: as §4

redroot pigweed [26] = assay: Test Example 4: herbicidal effect by soil treatment (Table 19, symbol N); format: in vivo, redroot pigweed (Amaranthus retroflexus); conditions: amount of applied herbicide 320 g/ha
How it was run: as §4

barnyard grass [27] = assay: Test Example 4: herbicidal effect by soil treatment (Table 19, symbol H); format: in vivo, barnyard grass (Echinochloa crus-galli); conditions: amount of applied herbicide 320 g/ha
How it was run: as §4

windgrass [28] = assay: Test Example 4: herbicidal effect by soil treatment (Table 19, symbol L); format: in vivo, windgrass (Apera spica-venti); conditions: amount of applied herbicide 320 g/ha
How it was run: as §4

green foxtail [29] = assay: Test Example 5: herbicidal effect by foliage application, plastic box (Table 20, symbol G); format: in vivo, green foxtail (Setaria viridis); conditions: foliage application, 320 g/ha, evaluated three weeks after application
How it was run: as §5

Italian ryegrass [30] = assay: Test Example 4: herbicidal effect by soil treatment (Table 19, symbol K); format: in vivo, Italian ryegrass (Lolium multiflorum); conditions: amount of applied herbicide 320 g/ha
How it was run: as §4

southern crabgrass [31] = assay: Test Example 4: herbicidal effect by soil treatment (Table 19, symbol F); format: in vivo, southern crabgrass (Digitaria ciliaris); conditions: amount of applied herbicide 320 g/ha
How it was run: as §4

[32] = amount of applied herbicide 320 g/ha

C=C(C)CCOc1ccc(-c2sc3ccccc3c2-c2c(O)c(C)nn(C)c2=O)cc1 [1-210]
herbicidal effect on H (barnyard grass), rating 0-5 (barnyard grass [1]; 320 g/ha): 5 (Herbicidal rate of 90% or more (almost completely withered)) | Herbicidal effect on B: Japanese bulrush (grade 0-5) (Japanese bulrush [2]): 5 (Herbicidal rate of 90% or more (almost completely withered)) | herbicidal effect rating, C: oval-leafed pondweed (oval-leafed pondweed [3]): 4 (Herbicidal rate of 70% or more and less than 90%) | herbicidal effect rating, A: late watergrass (late watergrass [4]): 3 (Herbicidal rate of 40% or more and less than 70%) | herbicidal effect on D (Chinese sprangletop), rating 0-5 (Chinese sprangletop; 320 g/ha): 5 (Herbicidal rate of 90% or more (almost completely withered)) | Herbicidal effect on C: oval-leafed pondweed (grade 0-5) (oval-leafed pondweed [5]): 5 (Herbicidal rate of 90% or more (almost completely withered)) | herbicidal effect on E (rice flat sedge), rating 0-5 (rice flat sedge; 320 g/ha): 4 (Herbicidal rate of 70% or more and less than 90%) | Herbicidal effect on A: late watergrass (grade 0-5) (late watergrass [6]): 5 (Herbicidal rate of 90% or more (almost completely withered)) | herbicidal effect rating, B: Japanese bulrush (Japanese bulrush [7]): 3 (Herbicidal rate of 40% or more and less than 70%)

COc1ccc(-c2sc3ccc(Cl)cc3c2-c2c(O)c(C)nn(C)c2=O)cc1F [2-117]
herbicidal effect on H: barnyard grass (barnyard grass [1]; [32]): 3 (Herbicidal rate of 40% or more and less than 70%) | M: velvetleaf, herbicidal effect rating (velvetleaf [8]): 0 (Herbicidal rate of 5% or less (almost no effect)) | herbicidal effect on P: chickweed (chickweed [9]): 5 (Herbicidal rate of 90% or more (almost completely withered)) | herbicidal effect on N: redroot pigweed (redroot pigweed [10]): 3 (Herbicidal rate of 40% or more and less than 70%) | I: wild oat, herbicidal effect rating (wild oat [11]): 0 (Herbicidal rate of 5% or less (almost no effect)) | herbicidal effect on K: Italian ryegrass (Italian ryegrass [12]): 0 (Herbicidal rate of 5% or less (almost no effect)) | herbicidal effect on R: persian speedwell (persian speedwell [13]): 5 (Herbicidal rate of 90% or more (almost completely withered)) | herbicidal effect rating, C: oval-leafed pondweed (oval-leafed pondweed [3]): 3 (Herbicidal rate of 40% or more and less than 70%) | herbicidal effect on I: wild oat (wild oat [14]): 0 (Herbicidal rate of 5% or less (almost no effect)) | herbicidal effect rating, A: late watergrass (late watergrass [4]): 0 (Herbicidal rate of 5% or less (almost no effect)) | herbicidal effect on F: southern crabgrass (southern crabgrass [15]): 0 (Herbicidal rate of 5% or less (almost no effect)) | herbicidal effect on D: Chinese sprangletop (Chinese sprangletop; [32]): 3 (Herbicidal rate of 40% or more and less than 70%) | G: green foxtail, herbicidal effect rating (green foxtail [16]): 0 (Herbicidal rate of 5% or less (almost no effect)) | herbicidal effect on J: blackgrass (blackgrass [17]): 0 (Herbicidal rate of 5% or less (almost no effect)) | herbicidal effect on M: velvetleaf (velvetleaf [18]): 4 (Herbicidal rate of 70% or more and less than 90%) | O: lambsquarters, herbicidal effect rating (lambsquarters [19]): 3 (Herbicidal rate of 40% or more and less than 70%) | herbicidal effect on H: barnyard grass (barnyard grass [20]): 0 (Herbicidal rate of 5% or less (almost no effect)) | herbicidal effect on E: rice flat sedge (rice flat sedge; [32]): 5 (Herbicidal rate of 90% or more (almost completely withered)) | J: blackgrass, herbicidal effect rating (blackgrass [21]): 0 (Herbicidal rate of 5% or less (almost no effect)) | herbicidal effect on L: windgrass (windgrass [22]): 0 (Herbicidal rate of 5% or less (almost no effect)) | herbicidal effect on O: lambsquarters (lambsquarters [23]): 3 (Herbicidal rate of 40% or more and less than 70%) | R: persian speedwell, herbicidal effect rating (persian speedwell [24]): 1 (Herbicidal rate of 5% or more and less than 20%) | P: chickweed, herbicidal effect rating (chickweed [25]): 0 (Herbicidal rate of 5% or less (almost no effect)) | N: redroot pigweed, herbicidal effect rating (redroot pigweed [26]): 1 (Herbicidal rate of 5% or more and less than 20%) | H: barnyard grass, herbicidal effect rating (barnyard grass [27]): 0 (Herbicidal rate of 5% or less (almost no effect)) | L: windgrass, herbicidal effect rating (windgrass [28]): 0 (Herbicidal rate of 5% or less (almost no effect)) | herbicidal effect on G: green foxtail (green foxtail [29]): 0 (Herbicidal rate of 5% or less (almost no effect)) | K: Italian ryegrass, herbicidal effect rating (Italian ryegrass [30]): 0 (Herbicidal rate of 5% or less (almost no effect)) | herbicidal effect rating, B: Japanese bulrush (Japanese bulrush [7]): 2 (Herbicidal rate of 20% or more and less than 40%) | F: southern crabgrass, herbicidal effect rating (southern crabgrass [31]): 0 (Herbicidal rate of 5% or less (almost no effect))
